The structures appear in SMILES notation.

Data on 107 compounds can be found in ChEMBL document CHEMBL3988442, “University of Dundee, Small-Polar-MMV Screening Library” (2021).

This test relates to Leishmania donovani. Kind of test: Leishmania intramacrophage assay. In kind it is functional, organism-based. The settings on record: for IC50: Leishmania donovani.

Compound `CCn1cnnc1CNc1nc(C)nc2scc(CC(C)C)c12` had an IC50 of over 50.1 µM.

`Cc1c(C(=O)O)sc2nc(Cc3ccccc3)nc(N)c12` had an IC50 of over 50.1 µM.

In the case of `O=C(NCCCN1CCOCC1)c1ccc(-n2ccc3ccccc32)s1`, the midpoint of inhibition, the IC50, lay at 15.8 µM.

`O=C(NCCCN1CCCC1=O)c1ccc(-n2ccc3ccccc32)s1` gave an IC50 of over 50.1 µM.

As to `Cn1nnc2c(sc3nc(N4CCOCC4)c4c(c32)CCC4)c1=O`, the IC50 was over 50.1 µM.

Regarding `CCCn1nnc2c(sc3nc(N4CCOCC4)c4c(c32)CCC4)c1=O`, the IC50 was over 50.1 µM.

Compound `CC(C)n1nnc2c(sc3nc(N4CCOCC4)c4c(c32)CCC4)c1=O` showed an IC50 of over 50.1 µM.

Take `COCCN1CCN(c2ccc3ccc(C(=O)NC4CC4)cn23)CC1`: the IC50 is over 50.1 µM.

Turning to `COCCNC(=O)c1ccc2ccc(N3CCN(CC4CC4)CC3)n2c1`, the IC50 was over 50.1 µM.

The compound `CN(C)C(=O)N1CCN(c2ccc3ccc(C(=O)NC4CC4)cn23)CC1` gave an IC50 of over 50.1 µM.

`CN(C)C(=O)c1ccc2ccc(N3CCN(CC4CC4)CC3)n2c1` showed an IC50 of over 50.1 µM.

`CN(C)CCNC(=O)c1ccc2ccc(N(C)CC3CC3)n2c1` had an IC50 of over 50.1 µM.

For the compound `CN(CC1CC1)c1ccc2ccc(C(=O)NC3CCCCC3)cn12`, the IC50 is over 50.1 µM.

`COCCNC(=O)c1ccc2ccc(N(C)CC3CC3)n2c1`: the IC50 was over 50.1 µM.

In the case of `CN(C)C(=O)CNC(=O)c1ccc2ccc(N(C)CC3CC3)n2c1`, the half-inhibitory concentration (IC50) is over 50.1 µM.

On to `CN(CC1CC1)c1ccc2ccc(C(=O)NCCc3ccccc3)cn12`, for which the IC50 is over 50.1 µM.

In turn, `CCN(CC)c1ccc2ccc(C(=O)N(C)C)cn12` showed an IC50 of over 50.1 µM.

Turning to `CCN(CC)c1ccc2ccc(C(=O)NC3CC3)cn12`, the IC50 was over 50.1 µM.

`CCNC(=O)c1ccc2ccc(N(CC)CC)n2c1` showed an IC50 of over 50.1 µM.

Take `FC1(F)CCN(c2ccccc2)CC12CCN(c1ncccn1)C2` (centres undefined): the IC50 was over 50.1 µM.

Compound `Cn1cc(CN2CCC(F)(F)C3(CCN(c4cccc(F)c4)C3)C2)cn1` (centres undefined) showed an IC50 of over 50.1 µM.

For `CCOc1cc(CNCCCn2ccnc2)cc(Cl)c1OCC`, inhibition was half-maximal at 7.08 µM (IC50).

Compound `CCOc1cc(CNCCCn2ccnc2)cc(Cl)c1OC` had an IC50 of 24.6 µM.

`CCOc1ccc(CNCCCn2ccnc2)cc1OC` had an IC50 of over 50.1 µM.

Consider `COc1ccc(Cl)cc1CNCCCn1ccnc1`, for which the IC50 is over 50.1 µM.

Compound `COC(=O)c1sc2nc3c(c(C(F)(F)F)c2c1N)CN(C(C)=O)CC3` had an IC50 of over 50.1 µM.

For the compound `CC(=O)c1sc2nc3c(c(C(F)(F)F)c2c1N)CN(C(C)=O)CC3`, the IC50 is over 50.1 µM.

Compound `CC(=O)N1CCc2nc3sc(C(N)=O)c(N)c3c(C(F)(F)F)c2C1` had an IC50 of over 50.1 µM.

On to `CNC(=O)c1sccc1N(C)S(=O)(=O)c1ccc(Cl)cc1`, for which the IC50 was over 50.1 µM.

In turn, `O=C(NCCN1CCOCC1)c1ccc(-n2ccc3ccccc32)s1` had an IC50 of over 50.1 µM.

For `CCOc1ccc(Cl)cc1CNCCCn1ccnc1`, it took 38.5 µM to reach half-maximal inhibition (IC50).

For the compound `Cc1nn(C)cc1-c1cc(C(F)F)nc2sc(C(N)=O)c(N)c12`, the IC50 was over 50.1 µM.

As for `CCn1nccc1CN(C)C(=O)Cn1cc2c(n1)c(C)nn2CC`, the IC50 is over 50.1 µM.

For the compound `Cc1nn(C)cc1-c1cc(C(F)(F)F)nc(NC2CCCCC2)n1`, the IC50 is over 50.1 µM.

Compound `FC(F)(F)c1cc(-c2cccs2)nc(N2CCN3CCCC3C2)n1` (centres undefined) showed an IC50 of over 50.1 µM.

In turn, `Cc1nn(C)cc1-c1cc(C(F)(F)F)nc(NC2CCN(C)CC2)n1` had an IC50 of over 50.1 µM.

`Cc1cc(C(F)(F)F)nc(N2CCN3CCCC3C2)n1` (centres undefined) gave an IC50 of over 50.1 µM.

`Cc1ccc(-c2cc(C(F)(F)F)nc(N3CCOCC3)n2)s1` gave an IC50 of over 50.1 µM.

For the compound `Cc1nc(NCc2cccnc2)c2c(n1)c(C)nn2C`, the IC50 is over 50.1 µM.

In turn, `Cc1cc(C(F)(F)F)nc(N(C)Cc2c(C)noc2C)n1` gave an IC50 of over 50.1 µM.

On to `O=C(NCC(F)(F)F)c1ccncc1`, for which the IC50 was over 50.1 µM.

`Cc1nc(NCc2nncn2C2CC2)c2c(CC(C)C)csc2n1` had an IC50 of over 50.1 µM.

Compound `Cc1nc(NCc2nnc(C)n2C)c2c(CC(C)C)csc2n1` showed an IC50 of over 50.1 µM.

With `Cc1cc(N(C)CC2COc3ccccc3O2)nc(C)n1` (centres undefined), the IC50 was over 50.1 µM.

Compound `Cc1cc(N(C)CC2COc3ccccc3O2)nc(N)n1` (centres undefined) had an IC50 of over 50.1 µM.

`COc1cccc(C(=O)NCc2ccccc2S(=O)(=O)N(C)C)c1`: the IC50 is over 50.1 µM.

In turn, `CN1CCN(CC(NCc2ccc(F)cc2)c2ccccc2)CC1` (centres undefined) gave an IC50 of 13.6 µM.

Take `COc1ccc(C)cc1CNC(=O)C1=NN(c2ccccc2)C(=O)CN1`: the IC50 was over 50.1 µM.

`COc1ncccc1CNC(=O)C1=NN(c2ccccc2)C(=O)CN1`: the 50% inhibitory concentration (IC50) was over 50.1 µM.

Regarding `N#Cc1cccc(CNC(=O)C2=NN(c3ccccc3)C(=O)CN2)c1`, the 50% inhibitory concentration (IC50) was over 50.1 µM.

In the case of `N#Cc1ccc(CNC(=O)C2=NN(c3ccccc3)C(=O)CN2)cc1`, the IC50 was over 50.1 µM.

`COc1ccc(CNC(=O)C2=NN(c3ccc(C)cc3)C(=O)CN2)cc1` showed an IC50 of over 50.1 µM.

In turn, `NC(=O)C1CCN(c2cncc(-n3cccn3)n2)CC1` had an IC50 of over 50.1 µM.

`CN(C)C(=O)C1CCN(c2cncc(-n3cccn3)n2)CC1`: the IC50 is over 50.1 µM.

`COc1ccccc1C1(CNc2nnc(C)c(C)c2C#N)CCOCC1` had an IC50 of over 50.1 µM.

As for `Cc1nnc(NCC2(c3ccccc3)CCOCC2)c(C#N)c1C`, the IC50 was over 50.1 µM.

In the case of `Cc1nnc(NCC2(c3ccccc3)CCC2)c(C#N)c1C`, the IC50 is over 50.1 µM.

Regarding `CS(=O)(=O)N1CCN(Cc2csc(-c3ncccn3)n2)CC1`, the IC50 is over 50.1 µM.

For the compound `CC(C)CC(=O)N1CCN(Cc2csc(-c3ncccn3)n2)CC1`, the IC50 was over 50.1 µM.

For `CC(O)CN1CCN(Cc2csc(-c3ncccn3)n2)CC1` (centres undefined), the IC50 was over 50.1 µM.

With `CC(=O)N1CCCN(Cc2csc(-c3ncccn3)n2)CC1`, the IC50 was over 50.1 µM.

For the compound `OCCN1CCC(F)(F)C2(CCN(c3cccnc3)C2)C1` (centres undefined), the IC50 is over 50.1 µM.

Compound `Cc1cnc(N2CCc3onc(COc4cccnc4)c3C2)nc1` showed an IC50 of over 50.1 µM.

`CN(C)C1COC2(CCN(Cc3ccncc3)CC2)C1` (centres undefined) showed an IC50 of over 50.1 µM.

The compound `Cc1cc2c(c(-c3cncc(C(=O)N4CCCC4)n3)c1)OC(CN)C2` (centres undefined) showed a pIC50 of 4.717 and an IC50 of 27.5 µM.

For the compound `CCCC1CCCN(Cc2csc(-c3ncccn3)n2)CC1` (centres undefined), the pIC50 is given as 4.896 and the midpoint of inhibition, the IC50, lay at 18.4 µM.

For `CCOc1c(CNCCCn2ccnc2)cc(Cl)cc1OC`, the IC50 was 27.5 µM.

In turn, `CCOc1ccc(CNCCCn2ccnc2)cc1Cl` showed an IC50 of 12.6 µM.

`CC(C)N1CCN(c2ccc3ccc(C(=O)NC4CCCC4)cn23)CC1` gave an IC50 of over 50.1 µM.

Compound `CCN(CC)c1ccc2ccc(C(=O)N(CCOC)CCOC)cn12` showed an IC50 of over 50.1 µM.

For `CN1CCN(c2ccc3ccc(C(=O)N4CCCO4)cn23)CC1`, the IC50 is over 50.1 µM.

As to `CCN(CC)c1ccc2ccc(C(=O)N3CCCCO3)cn12`, the IC50 is 24.4 µM.

`O=C(c1ccc2ccc(N3CCN(CC4CC4)CC3)n2c1)N1CCCO1` gave an IC50 of over 50.1 µM.

The compound `CN1CCN(c2ccc3ccc(C(=O)N4CCCCO4)cn23)CC1` showed an IC50 of over 50.1 µM.

Take `O=C(c1cc[nH]n1)N1CCC(F)(F)C2(CCN(c3ccccn3)C2)C1` (centres undefined): the IC50 is over 50.1 µM.

Compound `O=C(c1c[nH]cn1)N1CCC(F)(F)C2(CCN(c3cnccn3)C2)C1` (centres undefined) gave an IC50 of over 50.1 µM.

With `O=C(c1c[nH]cn1)N1CCC(F)(F)C2(CCN(c3ncccn3)C2)C1` (centres undefined), the IC50 was over 50.1 µM.

Compound `O=C(c1cnccn1)N1CCC(F)(F)C2(CCN(c3ccccn3)C2)C1` (centres undefined) had an IC50 of over 50.1 µM.

Compound `O=C(CO)N1CCC(F)(F)C2(CCN(c3ccccc3)C2)C1` (centres undefined) had an IC50 of over 50.1 µM.

Regarding `Cn1ccnc1CN1CCC(F)(F)C2(CCN(c3cnccn3)C2)C1` (centres undefined), the IC50 was over 50.1 µM.

Compound `Cn1cc(CN2CCC(F)(F)C3(CCN(c4ncc(F)cn4)C3)C2)cn1` (centres undefined) showed an IC50 of over 50.1 µM.

As to `FC1(F)CCN(Cc2ccccn2)CC12CCN(c1ncccn1)C2` (centres undefined), the IC50 is over 50.1 µM.

`c1cc(CN2CCC3(CC2)CC(N2CCCC2)CO3)co1` (centres undefined) showed a half-inhibitory concentration (IC50) of over 50.1 µM.

`CN(C)C1COC2(CCN(Cc3ccc4c(c3)OCO4)CC2)C1` (centres undefined): the 50% inhibitory concentration (IC50) is over 50.1 µM.

`O=C(c1c[nH]cn1)N1CCC(F)(F)C2(CCN(c3ccccn3)C2)C1` (centres undefined) showed an IC50 of over 50.1 µM.

Regarding `O=C(O)CN1CCC(F)(F)C2(CCN(c3ccccn3)C2)C1` (centres undefined), the IC50 is over 50.1 µM.

In turn, `Fc1ccc(CN2CCC(F)(F)C3(CCN(c4cnccn4)C3)C2)cc1` (centres undefined) showed an IC50 of over 50.1 µM.

In turn, `Cn1cc(CN2CCC(F)(F)C3(CCN(c4ccccn4)C3)C2)cn1` (centres undefined) had an IC50 of over 50.1 µM.

Compound `Cn1cc(CN2CCC(F)(F)C3(CCN(c4ncccn4)C3)C2)cn1` (centres undefined) gave an IC50 of over 50.1 µM.

Compound `Cn1cc(CN2CCC(F)(F)C3(CCN(c4cccnc4)C3)C2)cn1` (centres undefined) gave an IC50 of over 50.1 µM.

For `Cn1ncc2c1CN(Cc1ccc(F)cc1)CC2COCC1CC1` (centres undefined), the IC50 is over 50.1 µM.

Consider `Cn1ccnc1CN1CCC(F)(F)C2(CCN(c3cccnc3)C2)C1` (centres undefined), for which the 50% inhibitory concentration (IC50) is over 50.1 µM.

`Cn1nc(COc2cccnc2)c2c1CCN(CC1CC1)C2` showed an IC50 of over 50.1 µM.

Compound `CN1CCN(C2COC3(CCN(Cc4ccsc4)CC3)C2)CC1` (centres undefined) showed an IC50 of over 50.1 µM.

For the compound `c1cncc(COC[C@H]2CC[C@H]3[C@H](CCN3Cc3nccs3)O2)c1`, the IC50 is over 50.1 µM.

For the compound `COCCN(C)C1COC2(CCN(Cc3cccc(F)c3)CC2)C1` (centres undefined), the IC50 is over 50.1 µM.

Compound `CN1CCN(C2COC3(CCN(CC4CC4)CC3)C2)CC1` (centres undefined) showed an IC50 of over 50.1 µM.

With `FC1(F)CCN(Cc2cccnc2)CC12CCN(c1cnccn1)C2` (centres undefined), the IC50 was over 50.1 µM.

`FC1(F)CCN(Cc2ccncc2)CC12CCN(c1cnccn1)C2` (centres undefined) gave an IC50 of over 50.1 µM.

Compound `CN(Cc1ccncc1)C1COC2(CCN(Cc3cccs3)CC2)C1` (centres undefined) gave an IC50 of over 50.1 µM.

For `FC1(F)CCN(Cc2ccncc2)CC12CCN(c1cccnc1)C2` (centres undefined), the IC50 is over 50.1 µM.

For the compound `FC1(F)CCN(Cc2ccccn2)CC12CCN(c1cnccn1)C2` (centres undefined), the IC50 was over 50.1 µM.

`CN(Cc1ccncc1)C1COC2(CCN(Cc3ccco3)CC2)C1` (centres undefined) had an IC50 of over 50.1 µM.

`CN(Cc1ccncc1)C1COC2(CCN(Cc3ccsc3)CC2)C1` (centres undefined) gave an IC50 of over 50.1 µM.

Take `FC1(F)CCN(Cc2ccncc2)CC12CCN(Cc1ccccn1)C2` (centres undefined): the IC50 was over 50.1 µM.

In the case of `FC1(F)CCN(Cc2cccnc2)CC12CCN(c1ccccn1)C2` (centres undefined), the 50% inhibitory concentration (IC50) is over 50.1 µM.

`CN(Cc1ccncc1)C1COC2(CCN(Cc3ccccn3)CC2)C1` (centres undefined) gave an IC50 of over 50.1 µM.

The term IC50 denotes the concentration that inhibits the measured activity by half. Read a high IC50 as weaker potency in that assay. By pIC50 is commonly meant −log10 of the IC50, conventionally taken in molar units.
